Reference: patent US10125134B2 (Mirati Therapeutics, Inc., priority 2016, dated 2018)
Like-named read-outs stand apart in the source and are kept apart here.

Columns and labels:
[1] = biological target: KRas G12C (Homo sapiens, UniProt P01116, C118S/C51S/C80L/G12C); experiment: KRas G12C Modification Assay (LCMS detection of covalent adduct); type: binding; details: normalized percent of control, tested at 5 μM concentration for 3 hours
Summary of the method: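 Covalent modification was read by reverse-phase LC/MS of intact protein after compound exposure, each reaction stopped at its time point with 25 mM acetic acid. Unmodified-protein signal, taken as percent of total, was normalised to untreated protein and reported as POC.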

[2] = system: NCI-H358 cells (express KRas G12C), Phospho-ERK; experiment: Cellular inhibition of KRas G12C: Phospho-ERK in NCI-H358 cells; type: cell-based; details: pERK(Thr202/Tyr204) normalized with GAPDH, NCI-H358 cells, 3 hours, read-out: IC50
Summary of the method: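 IC50 derived by 4-parameter fit of GAPDH-normalized pERK(Thr202/Tyr204) signal, as percent of DMSO control. Signal came from in-cell immunodetection with infrared secondaries after 3 h compound exposure of KRas G12C NCI-H358 cells at 0.5% DMSO.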

| Compound | POC [1] | IC50 [2] [nM] | POC ([1]; 5 µM) | IC50 ([2]; Homo sapiens, NCI-H358, 3 h) [nM] |
| --- | --- | --- | --- | --- |
| C=CC(=O)N1CCN(c2nc(OC[C@@H]3CCCN3C)nc3c2CCN(c2cccc4ccc(OC)cc24)C3)CC1CC#N (stereo partly drawn) [Example 288, 2-[4-[7-(7-methoxy-1-naphthyl)-2-[[(2S)-1-methylpyrrolidin-2-yl]methoxy]-6,8-dihydro-5H-pyrido[3,4-d]pyrimidin-4-yl]-1-prop-2-enoyl-piperazin-2-yl]acetonitrile] | A (“A”≤25% POC) | > 1000 | – | – |
| C=CC(=O)N1CCN(c2nc(OC[C@@H]3CCCN3C)nc3c2CCN(c2nccc4ccccc24)C3)CC1CC#N (stereo partly drawn) [Example 289, 2-[4-[7-(1-isoquinolyl)-2-[[(2S)-1-methylpyrrolidin-2-yl]methoxy]-6,8-dihydro-5H-pyrido[3,4-d]pyrimidin-4-yl]-1-prop-2-enoyl-piperazin-2-yl]acetonitrile] | C (“C”>50% POC) | > 1000 | – | – |
| C=CC(=O)N1CCN(c2nc(OC[C@@H]3CCCN3C)nc3c2CCN(c2cccc4cc(F)ccc24)C3)CC1CC#N (stereo partly drawn) [Example 290, 2-[4-[7-(6-fluoro-1-naphthyl)-2-[[(2S)-1-methylpyrrolidin-2-yl]methoxy]-6,8-dihydro-5H-pyrido[3,4-d]pyrimidin-4-yl]-1-prop-2-enoyl-piperazin-2-yl]acetonitrile] | C (“C”>50% POC) | 0.1 to 1000 | – | – |
| C=CC(=O)N1CCN(c2nc(OC[C@@H]3CCCN3C)nc3c2CCN(c2cncc4ccccc24)C3)CC1CC#N (stereo partly drawn) [Example 291, 2-[4-[7-(4-isoquinolyl)-2-[[(2S)-1-methylpyrrolidin-2-yl]methoxy]-6,8-dihydro-5H-pyrido[3,4-d]pyrimidin-4-yl]-1-prop-2-enoyl-piperazin-2-yl]acetonitrile] | C (“C”>50% POC) | 0.1 to 1000 | – | – |
| C=CC(=O)N1CCN(c2nc(OC[C@@H]3CCCN3C)nc3c2CCN(c2cccc4cnccc24)C3)CC1CC#N (stereo partly drawn) [Example 292, 2-[4-[7-(5-isoquinolyl)-2-[[(2S)-1-methylpyrrolidin-2-yl]methoxy]-6,8-dihydro-5H-pyrido[3,4-d]pyrimidin-4-yl]-1-prop-2-enoyl-piperazin-2-yl]acetonitrile] | A (“A”≤25% POC) | > 1000 | – | – |
| C/C=C/C(=O)N1CCN(c2nc(OC[C@@H]3CCCN3C)nc3c2CCN(c2cccc4ccccc24)C3)CC1CC#N (stereo partly drawn) [Example 293, 2-[1-[(E)-but-2-enoyl]-4-[2-[[(2S)-1-methylpyrrolidin-2-yl]methoxy]-7-(1-naphthyl)-6,8-dihydro-5H-pyrido[3,4-d]pyrimidin-4-yl]piperazin-2-yl]acetonitrile] | C (“C”>50% POC) | 0.1 to 1000 | – | – |
| C=CC(=O)N1CCN(c2nc(OC[C@@H]3CCCN3C)nc3c2CCN(c2cccc4ncccc24)C3)CC1CC#N (stereo partly drawn) [Example 294, 2-[4-[2-[[(2S)-1-methylpyrrolidin-2-yl]methoxy]-7-(5-quinolyl)-6,8-dihydro-5H-pyrido[3,4-d]pyrimidin-4-yl]-1-prop-2-enoyl-piperazin-2-yl]acetonitrile] | C (“C”>50% POC) | > 1000 | – | – |
| C=CC(=O)N1CCN(c2nc(OC[C@@H]3CCCN3C)nc3c2CCN(c2ccnc4ccccc24)C3)CC1CC#N (stereo partly drawn) [Example 295, 2-[4-[2-[[(2S)-1-methylpyrrolidin-2-yl]methoxy]-7-(4-quinolyl)-6,8-dihydro-5H-pyrido[3,4-d]pyrimidin-4-yl]-1-prop-2-enoyl-piperazin-2-yl]acetonitrile] | – | > 1000 | A (“A”≤25% POC) | – |
| C=CC(=O)N1CCN(c2nc(OCCN(C)C)nc3c2CCN(c2ccccc2C(F)(F)F)C3)CC1CC#N (centres unmarked) [Example 296, 2-[4-[2-[2-(dimethylamino)ethoxy]-7-[2-(trifluoromethyl)phenyl]-6,8-dihydro-5H-pyrido[3,4-d]pyrimidin-4-yl]-1-prop-2-enoyl-piperazin-2-yl]acetonitrile] | C (“C”>50% POC) | 0.1 to 1000 | – | – |
| C=CC(=O)N1CCN(c2nc(OCCCN3C[C@H]4C[C@@H]3CO4)nc3c2CCN(c2ccccc2C(F)(F)F)C3)CC1CC#N (stereo partly drawn) [Example 297, 2-[4-[2-[3-[(1R,4R)-2-oxa-5-azabicyclo[2.2.1]heptan-5-yl]propoxy]-7-[2-(trifluoromethyl)phenyl]-6,8-dihydro-5H-pyrido[3,4-d]pyrimidin-4-yl]-1-prop-2-enoyl-piperazin-2-yl]acetonitrile] | C (“C”>50% POC) | 0.1 to 1000 | – | – |
| C=CC(=O)N1CCN(c2nc(OC[C@@H]3CCN(C)C3)nc3c2CCN(c2ccccc2C(F)(F)F)C3)CC1CC#N (stereo partly drawn) [Example 298, 2-(1-acryloyl-4-(2-(((R)-1-methylpyrrolidin-3-yl)methoxy)-7-(2-(trifluoromethyl)phenyl)-5,6,7,8-tetrahydropyrido[3,4-d]pyrimidin-4-yl)piperazin-2-yl)acetonitrile] | C (“C”>50% POC) | 0.1 to 1000 | – | – |
| C=CC(=O)N1CCN(c2nc(OC[C@H]3CCCN3C)nc3c2CCN(c2ccccc2C(F)(F)F)C3)CC1CC#N (stereo partly drawn) [Example 299, 2-[4-[2-[[(2R)-1-methylpyrrolidin-2-yl]methoxy]-7-[2-(trifluoromethyl)phenyl]-6,8-dihydro-5H-pyrido[3,4-d]pyrimidin-4-yl]-1-prop-2-enoyl-piperazin-2-yl]acetonitrile] | C (“C”>50% POC) | 0.1 to 1000 | – | – |
| C=CC(=O)N1CCN(c2nc(OCCN(CC)CC)nc3c2CCN(c2ccccc2C(F)(F)F)C3)CC1CC#N (centres unmarked) [Example 300, 2-[4-[2-[2-(diethylamino)ethoxy]-7-[2-(trifluoromethyl)phenyl]-6,8-dihydro-5H-pyrido[3,4-d]pyrimidin-4-yl]-1-prop-2-enoyl-piperazin-2-yl]acetonitrile] | C (“C”>50% POC) | 0.1 to 1000 | – | – |
| C=CC(=O)N1CCN(c2nc(OC[C@@H]3CCC(C)(C)N3C)nc3c2CCN(c2cccc4ccccc24)C3)CC1CC#N (stereo partly drawn) [Example 301, 2-[4-[7-(1-naphthyl)-2-[[(2S)-1,5,5-trimethylpyrrolidin-2-yl]methoxy]-6,8-dihydro-5H-pyrido[3,4-d]pyrimidin-4-yl]-1-prop-2-enoyl-piperazin-2-yl]acetonitrile] | C (“C”>50% POC) | – | – | 0.1 to 1000 |
| C=CC(=O)N1CCN(c2nc(OC[C@@H]3CCCN3C)nc3c2CCN(c2cccc4ccc(F)cc24)C3)CC1CC#N (some centres unmarked) [Example 302] | C (“C”>50% POC) | – | – | 0.1 to 1000 |
| C=CC(=O)N1CCN(c2nc(OCCN3CCCCC3)nc3c2CCN(c2cccc4ccccc24)C3)CC1CC#N (centres unmarked) [Example 303, 2-[4-[7-(1-naphthyl)-2-[2-(1-piperidyl)ethoxy]-6,8-dihydro-5H-pyrido[3,4-d]pyrimidin-4-yl]-1-prop-2-enoyl-piperazin-2-yl]acetonitrile] | C (“C”>50% POC) | – | – | 0.1 to 1000 |
| C=CC(=O)N1CCN(c2nc(OC[C@H]3CCCN3CCO)nc3c2CCN(c2cccc4ccccc24)C3)CC1CC#N (stereo partly drawn) [Example 304, 2-[4-[2-[[(2R)-1-(2-hydroxyethyl)pyrrolidin-2-yl]methoxy]-7-(1-naphthyl)-6,8-dihydro-5H-pyrido[3,4-d]pyrimidin-4-yl]-1-prop-2-enoyl-piperazin-2-yl]acetonitrile] | C (“C”>50% POC) | – | – | 0.1 to 1000 |
| C=CC(=O)N1CCN(c2nc(OC[C@@H]3CCCN3C)nc3c2CCN(c2cnccc2C#N)C3)C[C@@H]1CC#N [Example 305, 3-(4-((S)-4-acryloyl-3-(cyanomethyl)piperazin-1-yl)-2-(((S)-1-methylpyrrolidin-2-yl)methoxy)-5,6-dihydropyrido[3,4-d]pyrimidin-7(81)-yl)isonicotinonitrile] | C (“C”>50% POC) | – | – | > 1000 |
| C=CC(=O)N1CCN(c2nc(OC[C@@H]3C[C@@H](F)CN3C)nc3c2CCN(c2cccc4ccccc24)C3)C[C@@H]1CC#N [Example 306, 2-[(2S)-4-[2-[[(2S,4R)-4-fluoro-1-methyl-pyrrolidin-2-yl]methoxy]-7-(1-naphthyl)-6,8-dihydro-5H-pyrido[3,4-d]pyrimidin-4-yl]-1-prop-2-enoyl-piperazin-2-yl]acetonitrile] | C (“C”>50% POC) | – | – | 0.1 to 1000 |
| C=CC(=O)N1CCN(c2nc(OC[C@@H]3CCCN3C)nc3c2CCN(c2cccc(OC)c2F)C3)CC1CC#N (stereo partly drawn) [Example 307, 2-[4-[7-(2-fluoro-3-methoxy-phenyl)-2-[[(2S)-1-methylpyrrolidin-2-yl]methoxy]-6,8-dihydro-5H-pyrido[3,4-d]pyrimidin-4-yl]-1-prop-2-enoyl-piperazin-2-yl]acetonitrile] | C (“C”>50% POC) | – | – | > 1000 |
| C=CC(=O)N1CCN(c2nc(OC[C@@H]3CCCN3C)nc3c2CCN(c2cccc(F)c2OC)C3)CC1CC#N (stereo partly drawn) [Example 308, 2-[4-[7-(3-fluoro-2-methoxy-phenyl)-2-[[(2S)-1-methylpyrrolidin-2-yl]methoxy]-6,8-dihydro-5H-pyrido[3,4-d]pyrimidin-4-yl]-1-prop-2-enoyl-piperazin-2-yl]acetonitrile] | C (“C”>50% POC) | – | – | 0.1 to 1000 |
| C=CC(=O)N1CCN(c2nc(OC[C@@H]3CCCN3C)nc3c2CCN(c2cccc4cccc(C)c24)C3)CC1CC#N (stereo partly drawn) [Example 309, 2-(1-acryloyl-4-(7-(8-methylnaphthalen-1-yl)-2-(((S)-1-methylpyrrolidin-2-yl)methoxy)-5,6,7,8-tetrahydropyrido[3,4-d]pyrimidin-4-yl)piperazin-2-yl)acetonitrile] | C (“C”>50% POC) | – | – | 0.1 to 1000 |
